According to publication PMC9786170, “The Pharmacological Potential of Novel Melittin Variants from the Honeybee and Solitary Bees against Inflammation and Cancer” (Toxins, 2022):
Entries after “also recorded” stand apart in the source; their conditions may differ.

Tests used:
HEK293T cells [1] = experiment: Ca2+ induction assay (Fluo-8); type: cell-based, human; settings: Fluo-8, 0.25, 2.5, 25 µg/mL, partly already at 2.5 µg/mL, n = 4
Description: (§1) Figure 2 Melittin derivates influence cellular Ca^2+ and IP1 levels. (A) For the Ca^2+ induction assay, Fluo-8 pretreated HEK293-T cells were incubated with melittin derivates in the indicated concentrations and the fluorescence was detected. (B) For the Ca^2+ inhibition assay, Fluo-8 pretreated HEK293-T cells were incubated with peptides in the indicated concentrations for 30 min, stimulated with 5 µM ionomycin, and the fluorescence was detected. (C) IP3 has a short lifetime and is rapidly degraded to IP1; therefore, IP1 was determined. For the IP1/IP3 induction assay (left panel), HEK293T cells were incubated with melittin peptides in the indicated concentration for 2 h, a detection reagent was added, and the fluorescence resonance energy transfer signal was detected. For the IP1/IP3 inhibition assay (right panel), HEK293T cells were incubated with melittin peptides in the indicated concentration for 30 min and stimulated with 20 µM ionomycin for 1.5 h. After the addition of the detection reagent, the fluorescence resonance energy transfer signal was detected. Data are expressed as mean ± SEM. (A, B, C (left)) n = 4, (C (right)) n = 3. * p ≤ 0.05 versus control.
(§2) For analysis, 5 × 10^4 HEK293 cells or 2 × 10^4 MDA-MB-231 cells were seeded in a 96-well poly-D-lysine plate, incubated at 37 °C for 24 h, and treated with 4 µM Fluo-8-AM in HBSS for 1 h at 37 °C. After 1 h, the Fluo-8/HBSS was replaced by 100 µL HBSS. Five images per second were taken using an ImageXpress Micro Confocal High Content Imaging System (Molecular Device, San Jose, CA, USA). Melittin peptides (0.25, 2.5, and 25 µg/mL), DMSO (negative control), or 5 µM ionomycin (Sigma Aldrich; Taufkirchen, Germany) (positive control) were added to the cells. For the next 20 s, an image was obtained every second. For the inhibition assay, the peptide-treated samples (30 min) were treated with 5 µM ionomycin and for the next 20 s, an image was obtained every second. The data were analyzed with the MetaXpress Software Version 6 (Molecular Devices, San Jose, CA, USA). A threshold of fluorescence intensity was defined using cells before treatment, and all cells with a fluorescence signal above the threshold level were counted. For the induction assay, the number of cells above the threshold in the toxin-treated samples were related to the cells in the DMSO-treated sample. For the inhibition assay, the number of cells above the threshold in the melittin-treated samples were related to the cells in the ionomycin-treated sample.

HEK293T cells [2] = experiment: Ca2+ inhibition assay (ionomycin-stimulated, Fluo-8); type: cell-based, human; settings: Fluo-8, peptide 30 min, then 5 µM ionomycin, n = 4
Description: as §1, §2

RAW264.7 cells [3] = experiment: NO inhibition assay (LPS-stimulated, Griess); type: cell-based, murine; settings: RAW264.7, peptide 30 min, then 100 ng/mL LPS 24 h, n = 3
Description: Figure 4 Influence of melittin derivates on inflammation-associated cell functions. (A,B) For the NO induction assay (A), RAW264.7 cells were treated with melittin peptides in the indicated concentrations for 24 h. For the NO inhibition assay (B), RAW264.7 cells were pretreated with melittin peptides in the indicated concentrations for 30 min and then stimulated with 100 ng/mL LPS for 24 h. NO was detected in the supernatant using the Griess method. […] THP-1 cell adhesion under static conditions. HUVECs were grown to confluence, preincubated with bee venoms for 30 min, and activated with TNF (10 ng/mL) for 24 h. For the leukocyte adhesion assay, untreated THP-1 cells were stained with CellTracker Green and were allowed to adhere to the treated HUVECs for 5 min. The adhesion of leukocytes onto Ecs was quantified by fluorescence measurements for all cell adhesion experiments. Data are expressed as means ± SEM, (A,B) n = 3, (C) n = 2. * p ≤ 0.05 vs. TNF (positive) control.
2 × 10^4 RAW264.7 macrophages/well were plated in a 96-well plate and cultured for 24 h at 37 °C. To investigate if the melittin peptides induce nitrogen oxide (NO) synthesis, the melittin peptides, control (DMSO), and positive control (100 ng/mL lipopolysaccharide (LPS)) were added. To evaluate the effect of melittin peptides on inhibiting NO synthesis, the cells were pre-incubated with peptides or control (DMSO) for 30 min before 100 ng/mL LPS were added. After 24 h supernatants were collected and stored at −80 °C.
NO was determined with the Griess method. Briefly, for the standard curve, different concentrations of sodium nitrite (0–50 µM) were prepared in the medium. A total of 80 µL cell supernatant or standard sample were added to a 96-well microplate and subsequently, 20 µL sulfanilamide solution (120 mg sulfanilamide in 30 mL 1 N hydrochloric acid) and 20 µL naphthylenediamine solution (180 mg N-(1-naphthyl)ethylenediamine dihydrochloride in 30 mL water) were added. After 15 min of incubation, the absorbance (540 nm) was measured with the EnSpire Plate Reader (PerkinElmer, Waltham, MA, USA). For the induction assay, the NO levels of the melittin peptides-treated samples were related to the DMSO-treated sample. For the inhibition assay, the NO levels of the melittin peptides-treated cells were correlated with the LPS-treated samples.

RAW264.7 cells [4] = experiment: Cell viability assay (WST-8/Orangu formazan) in RAW264.7 cells; type: cell-based, murine
Description: Figure 1 Toxicity characterization of cells treated with melittin peptides. (A,B) For the viability assay, RAW264.7 (A) or HEK293T (B) cells were treated with bee venom compounds in the indicated concentrations for 24 h. Cells were incubated with WST-8 and the formed formazan was detected by absorbance measurements. (C) For the proliferation assay, HMEC-1 cells were grown in low density and treated after 24 h with the indicated peptide (25 µg/mL) for 72 h. Cells were stained with crystal violet solution. The amount of DNA-bound crystal violet was detected by absorbance measurements. (D) The number of sub-diploidic cells was determined by staining with propidium iodide (PI) and quantified to assess apoptosis of HUVECs. Data are expressed as mean ± SEM. (A) n = 3, (B) n = 4, (C) n = 2–3, (D) n = 2. * p ≤ 0.05 versus control.
For assessing the cytotoxicity of all peptides, various cell types and assays were utilized. To determine the cell viability of HEK293T and RAW246.7 cells, the Orangu^TM assay (Cell Guidance Systems Ltd., Cambridge, UK) was used, as previously described. 2 × 10^5 HEK293T or 2 × 10^5 RAW246.7 were seeded in 96-well plates. Different concentrations (0, 0.25, 2.5, 25 µg/mL) of melittin peptides or vehicle (DMSO) were added. After 24 h of incubation at 37 °C and 5% CO2, 10 µL of Orangu^TM cell counting solution was added and incubated for 60 min. After incubation, absorbance was measured at a wavelength of 450 nm with a reference at 650 nm at an EnSpire 2300 Multimode Plate Reader (Perkin Elmer, Lübeck, Germany). To calculate cell viability, the absorbance of vehicle-treated cells was set to 100%, and the melittin derivates-treated samples were correlated to them.

Row | Substance | induction of Ca2+ release (HEK293T cells [1]) | inhibition of ionomycin-induced Ca2+ release (HEK293T cells [2]) | inhibition of LPS-induced NO synthesis (RAW264.7 cells [3]) | reduction of cell viability (RAW264.7 cells [4]; RAW264.7, 25 µg/mL, 24 h, WST-8 formazan absorbance, vehicle = 100%, n = 3) | cytotoxicity in RAW264.7 (RAW264.7 cells [4]; RAW264.7 macrophage, Discussion)
1 | codesane | without inducing Ca^2+ release | inhibited the ionomycin-induced Ca^2+ release; also recorded: inhibit Ca^2+ levels | prevented LPS-induced NO synthesis in a concentration-dependent manner |  | 
2 | halictin |  | inhibit Ca^2+ levels |  |  | 
3 | halictin [Hal2] | without inducing Ca^2+ release | inhibited the ionomycin-induced Ca^2+ release |  |  | 
4 | melectin | induced a significant release of Ca^2+; also recorded: induce Ca^2+ release |  | prevented LPS-induced NO synthesis in a concentration-dependent manner |  | 
5 | osmin | induced a significant release of Ca^2+; also recorded: induce Ca^2+ release |  | prevented LPS-induced NO synthesis in a concentration-dependent manner |  | 
6 | xylopin [Xac1] |  | inhibit Ca^2+ levels |  |  | 
7 | xylopin [Xac3] | induced a significant release of Ca^2+ |  | prevented LPS-induced NO synthesis in a concentration-dependent manner; also recorded: inhibit NO synthesis | more than 90% | induced significant cytotoxicity
